Where “and” joins values, the source holds several entries; their conditions need not be identical. Equal entries are not always repeated. Where two headings read alike, the source gives them in different places.
Legend:
[1] = parameters: method as in PMID 23248677; conditions: cited from earlier work
15-LOX-1 [2] = system: 15-LOX-1; parameters: method as in PMID 26560362; conditions: rabbit enzyme; cited from earlier work
human 15-LOX = conditions: cited from earlier work
[3] = Lipid peroxidation assay (FeCl2/H2O2-stimulated linoleic acid peroxidation); format: biochemical; conditions: mean ± SEM of three experiments
Soybean 15-LOX enzyme = biological target: T1, Soybean 15-LOX enzyme (Glycine max, UniProt P08170); experiment: In vitro 15-lipoxygenase inhibition (Cayman Lipoxygenase Inhibitor Screening Assay Kit); format: biochemical; conditions: for IC50: Soybean 15-LOX, arachidonic acid substrate, mean ± SEM of three experiments; for 15-LOX inhibitory activity relative to quercetin: fold that of quercetin
T1 construct: purchased Cayman Chemical 760700
T1 sequence (P08170 1-839): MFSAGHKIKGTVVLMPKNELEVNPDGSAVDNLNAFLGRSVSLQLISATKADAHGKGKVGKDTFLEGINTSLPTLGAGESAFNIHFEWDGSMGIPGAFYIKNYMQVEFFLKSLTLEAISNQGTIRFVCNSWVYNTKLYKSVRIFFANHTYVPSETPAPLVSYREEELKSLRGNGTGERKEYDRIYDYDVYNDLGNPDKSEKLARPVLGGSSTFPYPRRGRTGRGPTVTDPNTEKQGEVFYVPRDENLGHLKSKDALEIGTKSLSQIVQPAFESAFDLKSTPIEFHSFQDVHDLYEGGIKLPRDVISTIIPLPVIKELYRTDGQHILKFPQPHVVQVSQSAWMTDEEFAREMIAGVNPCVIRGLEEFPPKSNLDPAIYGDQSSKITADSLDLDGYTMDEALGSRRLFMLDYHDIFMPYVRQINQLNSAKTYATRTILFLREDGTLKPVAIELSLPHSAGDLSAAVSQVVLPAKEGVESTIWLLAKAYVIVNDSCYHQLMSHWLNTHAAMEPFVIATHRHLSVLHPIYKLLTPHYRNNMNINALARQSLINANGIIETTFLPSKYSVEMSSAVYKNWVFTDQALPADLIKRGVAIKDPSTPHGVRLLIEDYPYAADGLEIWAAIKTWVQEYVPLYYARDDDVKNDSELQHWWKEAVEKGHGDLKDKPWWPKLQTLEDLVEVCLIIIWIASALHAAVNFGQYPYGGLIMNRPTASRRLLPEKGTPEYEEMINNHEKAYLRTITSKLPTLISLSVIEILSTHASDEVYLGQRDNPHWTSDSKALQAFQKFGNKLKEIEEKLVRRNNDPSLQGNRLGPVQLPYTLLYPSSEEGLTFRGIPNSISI
Procedure: 90 µL of 15-LOX was pipetted into a 96-well plate quickly. The test chemical was then dissolved in DMSO in 10 µL portions at concentrations of 2.5 µM, 5.0 µM, and 10 µM and added to each well. Arachidonic acid, a 110 µL substrate, was added to start the reaction, and the plate was shaken for at least five minutes. In order to interrupt enzyme catalysis and advance the reaction, 100 µL of chromogen was added to each well and made in accordance with the manufacturer’s instructions. In blank wells, 100 µL of assay buffer (0.1 M Tris-HCl, pH 7.4) was utilized. […] The solution’s absorbance was determined at λ 490–500 nm. The percentage inhibition was calculated according to the following equation:% inhibition = [(IA − Ainhibitor sample)/IA] × 100(1) where (IA) is the 100% initial activity and (Ainhibitor sample) is the absorbance of the test sample. A dose-response curve was plotted between % inhibition and the drug concentration. The non-linear dose-response curve was used for calculating drug concentration showing 50% enzyme inhibition.

[4] = DPPH radical scavenging assay; format: biochemical; conditions: mean ± SEM of three experiments
Procedure: The antioxidant potential of all target compounds (3–9) was determined using DPPH radical scavenging assay in comparison with ascorbic acid (AA) as the control treatment.
The mechanism of antioxidants as DPPH radical scavengers is based on their hydrogen-donation ability as hydrogen atoms or an electron transfer from the compound to the DPPH to form DPPH-H. The results of DPPH reduction are presented in Table 2, Figure 7.
The DPPH scavenging activity of all novel synthesized compounds (3–9) was measured as previously described (see Supplementary Materials).
1-Biological Evaluation Details: a-In-vitro Assays for biological antioxidant Activity
- DPPH scavenging method.
A 96-well plate was filled with 100 µL of the investigated compounds at various concentrations (12.5, 25, 50, 100, and 200 µg/mL ). The plate was then incubated at room temperature for 30 min while being protected from light by adding 100 µL of 100µM DPPH methanolic solution to each well. At a λ517 nm. the solution's absorbance was measured.
The positive control was ascorbic acid, and the negative control was DMSO. According to the following equation, the percentage of DPPH scavenging activity was determined:
% of DPPH scavenging = [(A control -A sample) / A control] x100. where A control is the absorbance of the control reaction (with all reagents except the test compound), and A sample is the absorbance of the test sample. Linear regression analysis was performed to calculate drug concentration showing 50% free radical inhibition activity (IC50). All tests were performed in triplicates. […]

[5] = Hydrogen peroxide scavenging assay; format: biochemical; conditions: mean ± SEM of three experiments
Procedure: H2O2 assay is used to estimate the scavenging power of the target compounds (4–9) to H2O2.
The hydrogen peroxide (H2O2) scavenging activity of all novel synthesized compounds 3–9 was measured as previously reported (see Supplementary Materials).
1-Biological Evaluation Details: a-In-vitro Assays for biological antioxidant Activity […]
Linear regression analysis was performed to calculate drug concentration showing 50% free radical inhibition activity (IC50). All tests were performed in triplicates.
-Scavenging of hydrogen peroxide
In this method, the decay or loss of hydrogen peroxide can be quantified spectrophotometrically at 230 nm when a scavenger is incubated with it. The procedure was applied with a few changes. In phosphate buffered saline, hydrogen […]
peroxide (20 mM) solution was prepared in phosphate buffered saline (PBS, pH 7.4). In order to make different concentrations of 1 ml of the tested substances (3–9) or standards in methanol, 2 ml of hydrogen peroxide solution in PBS was added. After 10 minutes, the absorbance of H2O2 was measured at 230 nm in comparison to an ascorbic acid (AA) reference solution that contained phosphate buffer but no H2O2.
% of H2O2 scavenging = [(A control -A sample) / A control] x100. […]

15-LOX-1 [6] = system: 15-LOX-1; parameters: method as in PMID 26560362; conditions: cited from earlier work
15-LOX-1 [7] = system: 15-LOX-1; parameters: method as in PMID 26560362; conditions: human; cited from earlier work

Row | SMILES | melting point | Lipid Peroxidation IC50 [3] | IC50 (Soybean 15-LOX enzyme) | DPPH IC50 [4] | H2O2 IC50 [5] | further results
1 | CC1=C(C(=O)OC(C)C)C(c2ccco2)NC(=S)N1 (centres unmarked) [XII] |  |  |  |  |  | antioxidant activity IC50 [1]: 600 µg/mL
2 | COc1ccc(-c2cc3cc(F)c(F)cc3[nH]2)cc1NC(=S)Nc1cccc(C(=O)O)c1 [XVII] |  |  |  |  |  | IC50 (15-LOX-1 [2]): 2 nM
3 | CCCCCc1ccc(S(=O)(=O)NCCc2nc(-c3ccccc3)[nH]c2-c2ccc(OC)cc2)cc1 [XV] |  |  |  |  |  | IC50 (human 15-LOX; AA, read-out: 15-LOX IC50 (AA)): 50 nM; IC50 (human 15-LOX; LA, read-out: 15-LOX IC50 (LA)): 17 nM
4 | COc1ccc(-c2cc3cc(F)c(F)cc3[nH]2)cc1NS(=O)(=O)c1cccs1 [XIV] |  |  |  |  |  | IC50 (human 15-LOX; read-out: 15-LOX IC50): 7 nM
5 | O=C(O)c1cc(O)c(O)c(O)c1 [gallic acid] |  |  |  |  |  | antioxidant activity IC50 [1]: 0.8 µg/mL
6 | c1csc(C2CSC(c3nc4ccccc4[nH]3)=N2)c1 (centres unmarked) [XVIII] |  |  |  |  |  | IC50 (15-LOX-1 [6]): 96 nM
7 | O=c1c2cnc(N3CCOCC3)nc2sn1CCN1CCCCC1 [XIX] |  |  |  |  |  | IC50 (15-LOX-1 [7]): 120 nM
8 | O=S(=O)(Nc1cccc(-c2nc3cccnc3[nH]2)c1)c1cccs1 [XVI] |  |  |  |  |  | IC50 (human 15-LOX; read-out: 15-LOX IC50): 10000 nM
9 | CCNC(=S)NN=C(C)c1cccc(NS(=O)(=O)c2c[nH]c(=S)[nH]c2=O)c1 [Compound 5b, N-{3-[(1E)-N-(ethylcarbamothionyl)ethanhydrazonoyl]phenyl}-4-oxo-2-thioxo-1,2,3,4-tetrahydropyrimidine-5-sulfonamide] | 310 to 312 °C | 85.0 ± 1.03 µg/mL | 5700 ± 30 nM | 14.70 ± 0.22 µg/mL and 14.00 ± 0.22 µg/mL | 40.0 ± 1.32 µg/mL | 

Second part, led by results:

Row | melting point | Lipid Peroxidation IC50 [3] | IC50 (Soybean 15-LOX enzyme) | DPPH IC50 [4] | H2O2 IC50 [5] | SMILES | further results
10 | 316 to 318 °C | 22.0 ± 1.40 µg/mL | 2900 ± 80 nM | 15.0 ± 1.25 µg/mL | 20.0 ± 1.40 µg/mL | O=c1[nH]c(=S)[nH]cc1S(=O)(=O)Nc1cccc(-c2csc(NN=Cc3cccc([N+](=O)[O-])c3)n2)c1 [Compound 9a, N-(3-{2-[(2E)-2(3-nitrobenzylidene)hydrazine]-1,3-thiazol-4-yl}phenyl)-4-oxo-thioxo-1,2,3,4-tetrahydropyrimidine-5-sulfonamides] | 
11 | 320 to 322 °C | 21.0 ± 1.45 µg/mL | 1800 ± 60 nM | 11.9 ± 1.40 µg/mL | 18.0 ± 0.72 µg/mL | O=c1[nH]c(=S)[nH]cc1S(=O)(=O)Nc1cccc(-c2csc(NN=Cc3cccc(Cl)c3)n2)c1 [Compound 9b, N-(3-{2-[(2E)-2(3-chlorobenzylidene)hydrazine]-1,3-thiazol-4-yl}phenyl)-4-oxo-thioxo-1,2,3,4-tetrahydropyrimidine-5-sulfonamides] | 15-LOX inhibitory activity relative to quercetin (Soybean 15-LOX enzyme): 2.0 fold
12 | 264 to 266 °C | 36.4 ± 1.33 µg/mL | 6600 ± 50 nM | 17.0 ± 1.63 µg/mL | 23.9 ± 1.34 µg/mL | Cc1cccc(-c2cc(-c3cccc(NS(=O)(=O)c4c[nH]c(=S)[nH]c4=O)c3)nc(N)c2C#N)c1 [Compound 7d, N-{3-[6-amino-5-cyano-4-(3-methylphenyl)pyridine-2-yl]phenyl}-4-oxo-2-thioxo-1,2,3,4-tetrahydropyrimidine-5-sulfonamides] | 
13 | 266 to 268 °C | 45.0 ± 1.52 µg/mL | 7850 ± 10 nM | 28.0 ± 1.06 µg/mL | 31.0 ± 1.30 µg/mL | N#Cc1c(-c2cccc([N+](=O)[O-])c2)cc(-c2cccc(NS(=O)(=O)c3c[nH]c(=S)[nH]c3=O)c2)[nH]c1=O [Compound 6a, N-{3-[5-cyano-4-(3-nitrophenyl)-6-oxo-1,6-dihydropyridin-2-yl]phenyl}-4-oxo-2-thioxo-1,2,3,4-tetrahydropyrimidine-5-sulfonamide] | 
14 | 326 to 328 °C | 20.0 ± 1.56 µg/mL | 2500 ± 30 nM | 7.55 ± 1.70 µg/mL | 15.0 ± 0.89 µg/mL | Cc1cccc(C=NNc2nc(-c3cccc(NS(=O)(=O)c4c[nH]c(=S)[nH]c4=O)c3)cs2)c1 [Compound 9d, N-(3-{2-[(2E)-2(3-methylbenzylidene)hydrazine]-1,3-thiazol-4-yl}phenyl)-4-oxo-thioxo-1,2,3,4-tetrahydropyrimidine-5-sulfonamides] | 
15 | 317 to 319 °C | 20.5 ± 1.48 µg/mL | 1950 ± 60 nM | 10.0 ± 0.83 µg/mL | 16.0 ± 1.20 µg/mL | O=c1[nH]c(=S)[nH]cc1S(=O)(=O)Nc1cccc(-c2csc(NN=Cc3cccc(F)c3)n2)c1 [Compound 9c, N-(3-{2-[(2E)-2(3-fluorobenzylidene)hydrazine]-1,3-thiazol-4-yl}phenyl)-4-oxo-thioxo-1,2,3,4-tetrahydropyrimidine-5-sulfonamides] | 15-LOX inhibitory activity relative to quercetin (Soybean 15-LOX enzyme): 1.84 fold
16 | 287 to 289 °C | 39.0 ± 1.46 µg/mL | 7800 ± 20 nM | 21.7 ± 0.7 µg/mL | 29.0 ± 1.03 µg/mL | N#Cc1c(-c2cccc(F)c2)cc(-c2cccc(NS(=O)(=O)c3c[nH]c(=S)[nH]c3=O)c2)[nH]c1=O [Compound 6c, N-{3-[5-cyano-4-(3-fluorophenyl)-6-oxo-1,6-dihydropyridin-2-yl]phenyl}-4-oxo-2-thioxo-1,2,3,4-tetrahydropyrimidine-5-sulfonamide] | 
17 | 268 to 270 °C | 36.9 ± 1.72 µg/mL | 6910 ± 20 nM | 17.7 ± 1.4 µg/mL | 24.0 ± 1.40 µg/mL | N#Cc1c(-c2cccc(F)c2)cc(-c2cccc(NS(=O)(=O)c3c[nH]c(=S)[nH]c3=O)c2)nc1N [Compound 7c, N-{3-[6-amino-5-cyano-4-(3-fluorophenyl)pyridine-2-yl]phenyl}-4-oxo-2-thioxo-1,2,3,4-tetrahydropyrimidine-5-sulfonamides] | 

From paper PMC9963659, “Novel 2-Thiouracil-5-Sulfonamide Derivatives: Design, Synthesis, Molecular Docking, and Biological Evaluation as Antioxidants with 15-LOX Inhibition” (Molecules, 2023)
